Experimental data reported in article PMC9330922, “Genomewide Analysis and Biological Characterization of Cathelicidins with Potent Antimicrobial Activity and Low Cytotoxicity from Three Bat Species” (Antibiotics, 2022).
Where two headings read alike, the source gives them in different places.

Assays:
Experiment in all cases: microbe, parasite or virus in culture
Type in all cases: cell-based
[1] = test system: Mucor hiemalis KCTC 26779; conditions: KCTC26779, concentration not given, peptides tested at 20, 40, and 80 µg/mL, fluvastatin sodium 70 µM, read-out: rate of metabolic inhibition
Experimental: To evaluate the antifungal activity of peptides against M. hiemalis, the metabolic activity of hyphae was measured using the same colorimetric assay as described above, with slight modifications to a previous study. Briefly, M. hiemalis was streaked onto malt extract broth (BD Biosciences) agar in a Petri dish and cultured at 25 °C for seven days. Then, conidia were collected from the dish by adding phosphate buffered saline (PBS) containing 0.05% Tween-80 (Sigma Aldrich) and filtered through sterilized 40 um cell strainer (SPL Life Science, Pocheon, Korea) to remove hyphae. After washing twice with PBS and centrifugation, 5 × 10^4 conidia were counted using a hemocytometer, suspended in 50 µL of RPMI 1640 as described above, and seeded in wells of a 96-well plate. After 16 h of incubation at 25 °C for hyphae formation, the plate was centrifuged at 3000× g and the media were changed. The peptides were then added at final concentrations of 20, 40, and 80 µg/mL. Fluvastatin sodium (70 µM; Sigma-Aldrich) was used as a reference for antifungal activity. […] The absorbance at 450 nm (for the treated group and control) and 650 nm (for the background) was measured for each well using a microplate reader (xMarkTM spectrophotometer; Bio-Rad). The metabolic activity of the fungal cells was calculated using the following equation. […]

[2] = test system: Candida albicans KCTC 7270; conditions: WST colorimetric, YMB
Experimental: (§1) The antifungal activities of the peptides were evaluated against two yeast fungi, C. albicans KCTC 7270 and C. cuniculi KCTC 17232, and a mold fungus, M. hiemalis KCTC 26779. C. albicans and C. cuniculi were cultured in yeast mold broth (YMB; BD Science) agar at 35 °C and 25 °C, respectively. Cells were prepared in YMB for C. albicans and RPMI 1640 medium (with l-glutamine, without phenol red and sodium bicarbonate, Sigma Aldrich, Saint Louis, MO, USA) and adjusted to pH 7.0 with 0.165 M 3-(N-morpholino) propanesulfonic acid (MOPS) (iNtRON Biotechnology, Seoul, Korea), as previously described for C. cuniculi. According to the 0.5 McFarland standard, cells at 1.5 × 10^5 CFU/well were seeded into a 96-well plate containing 180 µL of fresh medium. Subsequently, peptides at final concentrations of 5–45 ug/mL (1.2–19.3 μM) peptides were added to each well. Ciclopirox (≥98% (HPLC), Sigma Aldrich) was used as a reference for the antifungal activity. The antifungal assay was conducted in the same manner as the antibacterial assay described above, according to the manufacturer’s protocol. Briefly, C. albicans and C. cuniculi were incubated at 35 °C for 6 h and 25 °C for 47 h, respectively, and 10 µL of the coloring reagent was added and further incubated for 18 h and 25 h. The MIC values were determined in the same way as for the antibacterial assay.

[3] = test system: Cryptococcus cuniculi KCTC 17232; conditions: WST colorimetric
Experimental: as §1

Row | MIC ([2]; Candida albicans, KCTC7270, value in brackets, 35 °C 6 h + 18 h, read-out: MIC (converted)) | MIC ([2]; 1.5 × 10^5 CFU/well, 35 °C 6 h + 18 h coloring reagent) | MIC ([3]; Cryptococcus, KCTC17232, value in brackets, RPMI 1640 with MOPS pH 7.0, 25 °C 47 h + 25 h, read-out: MIC) | MIC ([3]; RPMI 1640 with MOPS pH 7.0, 1.5 × 10^5 CFU/well, 25 °C 47 h + 25 h coloring reagent) | Structure (SMILES) | inhibition at 70 µM [1]
1 | – | – | – | – | CC(C)n1c(/C=C/C(O)CC(O)CC(=O)O)c(-c2ccc(F)cc2)c2ccccc21 (centres unmarked) [fluvastatin sodium, Fluvastatin sodium] | ~80%
2 | 16.9 µM | 3.5 µg/mL | 2.4 µM | 0.5 µg/mL | Cc1cc(C2CCCCC2)n(O)c(=O)c1 [Ciclopirox] | –
